# Key:
# FR-α [1] = test: Endogenous FR-α in AR-transfected HeLa cells, flow cytometry with fluorescein-folic acid conjugate; format: cell-based
# Method: Where indicated, cells were transfected with AR expression plasmid and the testosterone (10 nM) and TSA (50 mg/ml) treatments were for 3 days post-transfection.
# FR-α promoter [2] = test: FR-α promoter-luciferase in T47D cells (endogenous PR and GR); format: cell-based; conditions: TSA 25 ng/ml with R5020
# Method: T47D cells were transfected with FR-α promoter-luciferase and where indicated, co-transfected with SRC1 expression plasmid. R5020 (10 nM) and TSA (25 mg/ml) treatments were initiated at the time of transfection and lasted 3 days at the end of which the cells were harvested for luciferase assays.
# FR-α [3] = test: FR-α in HeLa cell tumor xenografts after tamoxifen, western blot; format: in vivo, mouse; conditions: ER+ HeLa cell tumors, tamoxifen 1 mg/kg sc daily
# FR-α [4] = test: Induction of endogenous FR-α in ER+/FRα-negative cells; format: cell-based; conditions: ER+/FRα-negative cells including BG-1; results not shown
# Source text: It appears that ER will only modulate the endogenous FR-α gene in cells in which the gene is transcriptionally active.
# FR-α promoter [5] = test: FR-α promoter-luciferase reporter in IGROV-1 cells co-transfected with ER; format: cell-based; conditions: IGROV-1, ER co-transfected, 1 nM E2, pharmacologic concentrations of antiestrogen
# Method: (§1) (FIG. 1A) HeLa and IGROV-1 cells (10^6) were co-transfected with the FR-α promoter-luciferase construct (400 ng) and either an ER expression plasmid (25 ng) or with the plasmid vector alone (25 ng) in the presence of 1 nM E2. Antiestrogens were introduced at the time of transfection. […] (FIG. 1B) The FR-α promoter-luciferase construct (400 ng) was transfected into BG-1 cells (10^6) in the absence or in the presence of E2 (1 nM) and antiestrogens were introduced at the time of transfection. (FIG. 1C) HeLa cells (10^6) were transfected with the thymidine kinase (TK)-promoter-luciferase (200 ng) or Rous Sarcoma Virus (RSV)-promoter-luciferase (200 ng) constructs and were co-transfected with either ER plasmid (25 ng) or with the plasmid vector (25 ng). Antiestrogens were introduced at the time of transfection.
# Cell Culture and Transfection: HeLa I-1 cells were kindly provided by Dr. S. T. Rosen. BG-1 cells were provided by Dr. Randolf Ruch. […] Uniformity of transfection was routinely monitored through cotransfections with the β-galactosidase expression plasmid, pSV-β-gal (Promega). β-galactosidase activity was measured colorimetrically using the assay system available from Promega. […]
# FR-α promoter [6] = test: FR-α promoter-luciferase reporter in HeLa cells co-transfected with ER; format: cell-based
# Method: as §1
# FIGS. 2A and 2B are graphs showing an estrogen and antiestrogen dose response of a control ERE-driven promoter and the FR-α promoter in HeLa cells. The Y-axis in FIG. 2A indicates promoter activation, whereas the Y-axis in FIG. 2B indicates promoter repression. The cells (10^6) were transfected with either ERE2E1b-luciferase (100 ng) (FIG. 2A) or FR-α promoter-luciferase (100 ng) (FIG. 2B) and co-transfected with the ER expression plasmid (50 ng) where indicated. Cells that were not co-transfected with the ER-plasmid were co-transfected instead with the plasmid vector alone (50 ng).
# FIGS. 3A and 3B are graphs showing a time course of response of the control ERE2E1b-luciferase (FIG. 3A) and FR-α promoter luciferase (FIG. 3B) to antiestrogens in HeLa cells. The cells (10^6) were transfected with the indicated promoter-luciferase construct (100 ng) and co-transfected with ER expression plasmid (50 ng) in the presence of E2 (1 nM).
# In one set of experiments, the antiestrogens were removed after a 6 h treatment.
# Cell Culture and Transfection: HeLa I-1 cells were kindly provided by Dr. S. T. Rosen. BG-1 cells were provided by Dr. Randolf Ruch. HeLa (American Type Tissue Collection) and HeLa I-1 cells were routinely cultured in phenol red-free MEM supplemented with fetal bovine serum (FBS) (10%), penicillin (100 units/mL), streptomycin ([…]), and L-glutamine (2 mM). BG-1 and IGROV1 (American Type Tissue Collection) cells were routinely cultured in DMEM and supplemented as above. Treated or transfected cells were grown in phenol-red free media supplemented with charcoal-stripped FBS (5% v/v), penicillin (100 units/mL), streptomycin ([…]), L-glutamine (2 mM), insulin (2 μg/mL), and transferrin (40 μg/mL) unless otherwise noted. In addition, treated HeLa I-1 cells were grown in culture with 50 μg/mL G418. […] Uniformity of transfection was routinely monitored through cotransfections with the β-galactosidase expression plasmid, pSV-β-gal (Promega). β-galactosidase activity was measured colorimetrically using the assay system available from Promega.
# Luciferase Assay: Forty-eight hours after transfection, the cells were washed once with PBS (10 mM sodium phosphate, pH 7.5, 150 mM NaCl) and harvested in 400 μL of reporter lysis buffer provided with the luciferase assay system (Promega). The samples were centrifuged at 12,000 g for 2 min at room temperature. The supernatant was assayed for luciferase activity in a luminometer (Lumat LB9501, Berthold) using the luciferase substrate from Promega.
# PSA promoter = test: PSA promoter-luciferase in HeLa cells transfected with AR; format: cell-based; conditions: 10 nM, introduced 48 h post-transfection
# Method: (§2) FIGS. 10A, 10B, 10C and 10D are graphs showing the enhancement of FR-α promoter activity by testosterone/AR. In HeLa cells, AR was introduced by transiently transfecting an AR expression plasmid. FR-α promoter-luciferase, PSA-promoter-luciferase, or promoterless PGL3 basic-luciferase was co-transfected. Testosterone was introduced at the time of transfection (10 nM in FIGS. 10A, 10C, and 10D) and cells harvested for luciferase assays 48 h post-transfection. […] FIGS. 10C and 10D show AR dose responses for the FR-α and PSA promoters, respectively.
# (§3) FIG. 11 is a graph showing the time course of testosterone/AR action on FR-α and PSA promoters. HeLa cells were cotransfected with AR expression plasmid and either FR-α promoter-luciferase or PSA promoter-luciferase. Testosterone (10 nM) was introduced 48 h post-transfection and the cells harvested to assay luciferase activity at the indicated times.
# FR-α promoter [7] = test: FR-α promoter-luciferase in HeLa cells transfected with AR; format: cell-based; conditions: 10 nM
# Method: as §2, §3
# FR (α or β) = test: FR induction by testosterone in FR-negative cell types; format: cell-based; conditions: results not shown
# FR-α promoter [8] = test: FR-α promoter-luciferase in HeLa cells (endogenous GR); format: cell-based
# Method: (§4) HeLa cells, which express endogenous GR, were transfected with FR-α promoter-luciferase or GRE2e1b promoter luciferase. […] FIG. 17B: Time course of Dex action. Promoter activity was measured in terms of luciferase activity at the different time points.
# GRE2e1b promoter = tested on: GRE2e1b promoter
# Method: as §4
# [9] = target: T1, Estrogen receptor alpha (ER) (UniProt P03372 P03372:1-595); test: EMSA; no ER shift with consensus Sp1; HeLa NE present; conditions: assayed with HeLa nuclear extract; label: 32P
# T1 sequence (P03372 whole entry, one chain of several): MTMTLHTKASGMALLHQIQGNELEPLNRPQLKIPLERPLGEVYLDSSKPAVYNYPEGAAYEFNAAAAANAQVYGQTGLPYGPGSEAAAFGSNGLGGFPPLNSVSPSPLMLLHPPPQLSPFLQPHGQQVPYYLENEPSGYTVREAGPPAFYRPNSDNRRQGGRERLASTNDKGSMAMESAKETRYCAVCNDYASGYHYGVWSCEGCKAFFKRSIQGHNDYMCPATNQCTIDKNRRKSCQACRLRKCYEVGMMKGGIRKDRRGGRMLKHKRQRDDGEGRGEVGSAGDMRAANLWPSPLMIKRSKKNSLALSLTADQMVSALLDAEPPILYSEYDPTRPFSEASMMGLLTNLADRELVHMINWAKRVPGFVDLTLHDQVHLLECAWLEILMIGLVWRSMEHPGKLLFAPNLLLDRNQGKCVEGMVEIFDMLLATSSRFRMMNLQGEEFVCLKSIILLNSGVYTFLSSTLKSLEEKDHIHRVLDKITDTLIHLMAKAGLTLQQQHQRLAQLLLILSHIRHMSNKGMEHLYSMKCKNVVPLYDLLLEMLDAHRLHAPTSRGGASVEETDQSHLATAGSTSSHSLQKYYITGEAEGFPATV
# [10] = target: T1, Estrogen receptor alpha (ER); test: EMSA; HeLa NE present; tamoxifen but not ICI 182,780 abolished band; conditions: assayed with HeLa nuclear extract; label: 32P
# [11] = target: T1, Estrogen receptor alpha (ER); test: EMSA; HeLa NE present; E2 increased band, tamoxifen and ICI 182,780 abolished it; 100-fold unlabelled ERE blocked; room temperature, 50 mM KCl, 0.5 mM MgCl2; conditions: assayed with HeLa nuclear extract; label: 32P
molecule,measurement,setting,value
"CC(/C=C/C(=O)NO)=C\[C@@H](C)C(=O)c1ccc(N(C)C)cc1 [TSA, trichostatin A]",further enhancement of the testosterone/AR-dependent increase,FR-α [1]; 50 ng/ml TSA with testosterone 10 nM,~4 fold
same,activation of the FR-α promoter by R5020,FR-α promoter [2],greatly potentiated
"CC/C(=C(\c1ccccc1)c1ccc(OCCN(C)C)cc1)c1ccccc1 [tamoxifen, Tamoxifen]",FR-α expression in tumors,FR-α [3],significant increase in FR-α expression
same,induction of endogenous FR-α expression,FR-α [4],In no case did the inventor observe induction
same,FR-α promoter activity after repression by ER,FR-α promoter [5],either partially or completely restored to the uninhibited values
same,derepression of FR-α promoter after 6 h treatment and withdrawal,"FR-α promoter [6]; 6 h treatment, then compound withdrawn",partially lost
same,effect on FR-α promoter (ligand dose response),"FR-α promoter [6]; HeLa, ER co-transfected",the repression was counteracted
same,FR-α promoter activity after repression by ER,"FR-α promoter [6]; HeLa, ER co-transfected, 1 nM E2, pharmacologic concentrations of antiestrogen",either partially or completely restored to the uninhibited values
same,reporter activity at the end of 48 h post-transfection,FR-α promoter [6]; antiestrogen introduced 24 h after co-transfection,a doubling of the reporter activity
same,onset of activation of FR-α promoter,FR-α promoter [6]; antiestrogen introduced 24 h after transfection,began within hours and progressively increased
same,FR-α promoter activity in the absence of ER,"FR-α promoter [6]; no ER co-transfected, HeLa and IGROV-1, results not shown",did not alter FR-α promoter activity
C[C@]12CC[C@H]3[C@@H](CCC4=CC(=O)CC[C@@]43C)[C@@H]1CC[C@@H]2O [testosterone],time at which activation was observed,PSA promoter,2 h
same,increase in fluorescence of the major peak (endogenous FR),"FR-α [1]; 10 nM for 3 days, AR transfected",approximately 7 fold
same,FR-α promoter activity,FR-α promoter [7],increased the promoter activity
same,time at which activation was observed,FR-α promoter [7]; introduced 48 h post-transfection,2 h
same,induction of FR (α or β) expression,FR (α or β),did not induce FR (α or β) expression
"C[C@@H]1C[C@H]2[C@@H]3CCC4=CC(=O)C=C[C@]4(C)[C@@]3(F)[C@@H](O)C[C@]2(C)[C@@]1(O)C(=O)CO [Dex, dexamethasone]",concentration of optimal enhancement,FR-α promoter [8],50 nM
same,time at which enhancement began,FR-α promoter [8],> 48 h
same,time at which activation was shown,GRE2e1b promoter,≤ 3 h
consensus Sp1 probe (dsDNA) DNA 1: ATTCGATCGGGGCGGGGCGAG DNA 2: CTCGCCCCGCCCCGATCGAAT,binding result,[9],no binding
consensus ERE probe (dsDNA) DNA 1: GTCAGGTCACAGTGACCTGA DNA 2: TCAGGTCACTGTGACCTGAC,binding result,[10],binds
FR-alpha P4 promoter probe -89 to -50 (dsDNA) DNA 1: GGAGATGGGGGCAGGGCTCTATCTGCCCCAGGCTTCCGTCC DNA 2: GGACGGAAGCCTGGGGCAGATAGAGCCCTGCCCCCATCTCC,binding result,[11],binds
